Source: article PMC11859928, “Design, Synthesis, and Antiproliferative Activity of Novel Indole/1,2,4-Triazole Hybrids as Tubulin Polymerization Inhibitors” (Pharmaceuticals, 2025)

What was measured:
Assay in all cases: NCI one-dose assay
Assay type in all cases: cell-based
[1] = test system: SW-620; conditions: Homo sapiens, SW-620, Colon cancer, read-out: Cell growth inhibition %
Protocol: (§1) The National Cancer Institute (NCI), Bethesda, USA, selected the final compounds 6a–j and 7a–j for in vitro anticancer screening. An initial in vitro single-dose anticancer experiment was performed with the entire NCI 60 cell lines derived from nine tumor subpanel cancer cell lines. The results for each compound were illustrated as a mean graph showing the percentage growth of treated cells compared to untreated control cells (see Supplementary Materials).
(§2) The NCI anticancer screening process has been thoroughly detailed. The Drug Evaluation Branch of the National Cancer Institute in Bethesda, […], USA, established the procedure and conducted the anticancer assay on 60 human tumor cell lines from nine neoplastic cancers.

[2] = test system: K-562; conditions: Homo sapiens, K562, K-562, Leukemia, read-out: Cell growth inhibition %
Protocol: as §1, §2

[3] = test system: MDA-MB-231/ATCC; conditions: Homo sapiens, Breast cancer, read-out: Cell growth inhibition %
Protocol: as §1, §2

[4] = test system: EKVX; conditions: Homo sapiens, Non-small cell lung cancer, read-out: Cell growth inhibition %
Protocol: as §1, §2

[5] = test system: NCI-H522; conditions: Homo sapiens, NCI-H522, Non-small cell lung cancer, read-out: Cell growth inhibition %
Protocol: as §1, §2

[6] = test system: KM12; conditions: Homo sapiens, KM12, Colon cancer, read-out: Cell growth inhibition %
Protocol: as §1, §2

[7] = test system: SNB-19; conditions: Homo sapiens, SNB-19, CNS cancer, read-out: Cell growth inhibition %
Protocol: as §1, §2

[8] = test system: SK-MEL-28; conditions: Homo sapiens, SK-MEL-28, Melanoma, read-out: Cell growth inhibition %
Protocol: as §1, §2

[9] = test system: HL-60(TB); conditions: Homo sapiens, Leukemia, read-out: Cell growth inhibition %
Protocol: as §1, §2

[10] = test system: DU-145; conditions: Homo sapiens, DU-145, Prostate cancer, read-out: Cell growth inhibition %
Protocol: as §1, §2

[11] = test system: HS 578 T; conditions: Homo sapiens, Breast cancer, read-out: Cell growth inhibition %
Protocol: as §1, §2

[12] = test system: SF-295; conditions: Homo sapiens, SF-295, CNS cancer, read-out: Cell growth inhibition %
Protocol: as §1, §2

[13] = test system: CAKI-1; conditions: Homo sapiens, CAKI-1, Renal cancer, read-out: Cell growth inhibition %
Protocol: as §1, §2

[14] = test system: A549/ATCC; conditions: Homo sapiens, Non-small cell lung cancer, read-out: Cell growth inhibition %
Protocol: as §1, §2

[15] = test system: CCRF-CEM; conditions: Homo sapiens, Leukemia, read-out: Cell growth inhibition %
Protocol: as §1, §2

[16] = test system: SK-MEL-2; conditions: Homo sapiens, SK-MEL-2, Melanoma, read-out: Cell growth inhibition %
Protocol: as §1, §2

[17] = test system: T-47D; conditions: Homo sapiens, T47D, Breast cancer, read-out: Cell growth inhibition %
Protocol: as §1, §2

[18] = test system: MDA-MB-468; conditions: Homo sapiens, MDA-MB-468, Breast cancer, read-out: Cell growth inhibition %
Protocol: as §1, §2

[19] = test system: BT-549; conditions: Homo sapiens, BT-549, Breast cancer, read-out: Cell growth inhibition %
Protocol: as §1, §2

[20] = test system: SF-268; conditions: Homo sapiens, SF-268, CNS cancer, read-out: Cell growth inhibition %
Protocol: as §1, §2

[21] = test system: SK-OV-3; conditions: Homo sapiens, SK-OV-3, Ovarian cancer, read-out: Cell growth inhibition %
Protocol: as §1, §2

[22] = test system: SR; conditions: Homo sapiens, Leukemia, read-out: Cell growth inhibition %
Protocol: as §1, §2

[23] = test system: MCF7; conditions: Homo sapiens, MCF7, Breast cancer, read-out: Cell growth inhibition %
Protocol: as §1, §2

[24] = test system: ACHN; conditions: Homo sapiens, Renal cancer, read-out: Cell growth inhibition %
Protocol: as §1, §2

[25] = test system: OVCAR-3; conditions: Homo sapiens, OVCAR-3, Ovarian cancer, read-out: Cell growth inhibition %
Protocol: as §1, §2

[26] = test system: NCI-H322M; conditions: Homo sapiens, Non-small cell lung cancer, read-out: Cell growth inhibition %
Protocol: as §1, §2

[27] = test system: HCC-2998; conditions: Homo sapiens, HCC-2998, Colon cancer, read-out: Cell growth inhibition %
Protocol: as §1, §2

[28] = test system: HT29; conditions: Homo sapiens, HT-29, HT29, Colon cancer, read-out: Cell growth inhibition %
Protocol: as §1, §2

[29] = test system: MOLT-4; conditions: Homo sapiens, MOLT-4, Leukemia, read-out: Cell growth inhibition %
Protocol: as §1, §2

[30] = test system: HCT-116; conditions: Homo sapiens, HCT-116, Colon cancer, read-out: Cell growth inhibition %
Protocol: as §1, §2

[31] = test system: HOP-62; conditions: Homo sapiens, HOP-62, Non-small cell lung cancer, read-out: Cell growth inhibition %
Protocol: as §1, §2

[32] = test system: OVCAR-4; conditions: Homo sapiens, OVCAR-4, Ovarian cancer, read-out: Cell growth inhibition %
Protocol: as §1, §2

[33] = test system: SN12C; conditions: Homo sapiens, Renal cancer, read-out: Cell growth inhibition %
Protocol: as §1, §2

[34] = test system: UACC-257; conditions: Homo sapiens, UACC-257, Melanoma, read-out: Cell growth inhibition %
Protocol: as §1, §2

[35] = test system: HCT-15; conditions: Homo sapiens, HCT-15, Colon cancer, read-out: Cell growth inhibition %
Protocol: as §1, §2

[36] = test system: M14; conditions: Homo sapiens, M14, Melanoma, read-out: Cell growth inhibition %
Protocol: as §1, §2

[37] = test system: COLO 205; conditions: Homo sapiens, COLO 205, Colon cancer, read-out: Cell growth inhibition %
Protocol: as §1, §2

SMILES | inhibition at 10 µM [1] [%] | inhibition at 10 µM [2] [%] | inhibition at 10 µM [3] [%] | inhibition at 10 µM [4] [%] | inhibition at 10 µM [5] [%] | inhibition at 10 µM [6] [%] | inhibition at 10 µM [7] [%] | inhibition at 10 µM [8] [%] | inhibition at 10 µM [9] [%] | inhibition at 10 µM [10] [%] | inhibition at 10 µM [11] [%] | inhibition at 10 µM [12] [%] | inhibition at 10 µM [13] [%] | inhibition at 10 µM [14] [%] | inhibition at 10 µM [15] [%] | inhibition at 10 µM [16] [%] | inhibition at 10 µM [17] [%] | inhibition at 10 µM [18] [%] | inhibition at 10 µM [19] [%] | inhibition at 10 µM [20] [%] | also measured
C=CCn1c(SCC(=O)c2ccc(Br)cc2)nnc1-c1c[nH]c2ccccc12 [Compound 6d, 2-((4-Allyl-5-(1H-indol-3-yl)-4H-1,2,4-triazol-3-yl)thio)-1-(4-bromophenyl)ethenone] | -10.2 | 14.5 | 3.15 | 7.22 | 3.7 | -2.46 | -0.26 | 3.9 | 7.71 | -6.19 | -5.71 | 6.78 | 9.77 | -3.29 | 2.08 | -15.3 | 2.98 | 13.1 | -5.98 | -1.95 | inhibition at 10 µM [21]: -13.1%; inhibition at 10 µM [22]: 11.3%; inhibition at 10 µM [23]: 2.11%; inhibition at 10 µM [24]: 11.7%; inhibition at 10 µM [25]: -10.4%; inhibition at 10 µM [26]: 0.55%; inhibition at 10 µM [27]: -4.47%; inhibition at 10 µM [28]: -4.18%; inhibition at 10 µM [29]: 8.82%; inhibition at 10 µM [30]: 6.53%; inhibition at 10 µM [31]: -2.78%; inhibition at 10 µM [32]: -8.69%; inhibition at 10 µM [33]: 4.39%; inhibition at 10 µM [34]: -7.6%; inhibition at 10 µM [35]: 0.98%; inhibition at 10 µM [36]: 2.64%; inhibition at 10 µM [37]: -7.53%
O=C(CSc1nnc(-c2c[nH]c3ccccc23)n1-c1ccccc1)c1ccccc1 [Compound 6f, 2-((5-(1H-indol-3-yl)-4-phenyl-4H-1,2,4-triazol-3-yl)thio)-1-phenylethanone] | 23.9 | 47.2 | 73 | 31.6 | 28.4 | 30.5 | 80.8 | 0.04 | 12.8 | 14.3 | 75.9 | 28 | 46.8 | 14.5 | 8.65 | 8.14 | 16.5 | 22.8 | 37.8 | 68.3 | inhibition at 10 µM [21]: 14.4%; inhibition at 10 µM [22]: 18.4%; inhibition at 10 µM [23]: 63.8%; inhibition at 10 µM [24]: 39.5%; inhibition at 10 µM [25]: 39.2%; inhibition at 10 µM [26]: 18.8%; inhibition at 10 µM [27]: 16.9%; inhibition at 10 µM [28]: 52.1%; inhibition at 10 µM [29]: 9.43%; inhibition at 10 µM [30]: 62%; inhibition at 10 µM [31]: 76.6%; inhibition at 10 µM [32]: 102%; inhibition at 10 µM [33]: 55.3%; inhibition at 10 µM [34]: -3.2%; inhibition at 10 µM [35]: 20.6%; inhibition at 10 µM [36]: 26.4%; inhibition at 10 µM [37]: 6.63%
